Here are results for twelve compounds from US9856218B2, “Inhibitors of PRMT5 and methods of their use” (Ohio State Innovation Foundation, priority 2013, dated 2018).

Experiment [1] concerns Mantle cell lymphoma cell line Jeko. The experiment in a line: MTS anti-proliferation assay. Format: cell-based. The procedure: MTS proliferation assays were performed according the CellTiter 96™ Aqueous Cell Proliferation Assay Technical Bulletin (Promega, Madison, Wis.). 5×10^5 cells were plated in each well of a 96-well plate at 37° C. and assayed for proliferation at 24, 48, and 72 hr. Proliferation signal at 50% of control was used as IC50 for growth.
(§1) Following the synthesis of 14 compounds, the anti-proliferation and pro-apoptotic activities of those compounds was evaluated in Mantle cell lymphoma cell line Jeko. Replicate cultures of Jeko were incubated in DMSO and the compounds for 24, 48 and 72 hours. FITC-Annexin V-PI stained flow cytometry was used to detect the apoptotic population of cells (Table 4).

Experiment [2] has as its target T1, recombinant human PRMT5/MEP50 enzyme (Homo sapiens, UniProt O14744).
T1 construct: purchased BPS Bioscience
The experiment in a line: Epigenase PRMT methyltransferase (type II-specific) activity/inhibition assay kit. Format: biochemical. The settings on record: 25 ng recombinant human PRMT5/MEP50 per reaction; read-out: Inhibition of PRMT5 mediated H4R3 methylation (IC50). The procedure:
The inhibition of PRMT5 mediated H4R3 methylation result was obtained with Epigenase™ PRMT methyltransferase (type II-specific) activity/inhibition assay kit. 25 ng recombinant human PRMT5/MEP50 enzyme (purchased from BPS Bioscience) was used in each reaction.

Experiment [3] relates to PRMT5 expression and phosphorylation levels in AML cells. The experiment in a line: PRMT5 expression and phosphorylation after FLT3 inhibition. Format: cell-based. Conditions: FIG. 38C.
Procedure: Whole cell lysates were prepared by suspending cell pellets in RIPA buffer for 20 min (1% NP-40, 0.1% SDS, 150 mM NaCl, 50 mM Tris, pH 8.0), then supplemented with 1× complete EDTA free protease inhibitor (Roche) and 1× PhosStop (Roche). Lysates were separated by 4-20% SDS-PAGE and transferred to PVDF membrane (GE Healthcare, Piscataway, N.J.). Membranes were blocked with 5% milk or BSA in 1×TBS with 0.1% Tween 20 for 1 hour at room temperature with shaking. Primary antibodies for ACTIN, GAPDH and FLT3 (Santa Cruz Biotechnology, Santa Cruz Calif.), P65 (Cell signaling), PRMT5 and SP1 (Millipore), H4R3, H3R8, H3 and H4 (Abcam), were diluted 1:1000 or 1:2000 in 5% milk or BSA and incubated for 1-2 hr at room temperature. Membranes were washed using 1×TBS-T, incubated with HRP-conjugated secondary antibodies diluted in 1×TBS-T with 5% milk or BSA, washed, and developed using SuperSignal West Dura Chemiluminescent Substrate (Thermo Scientific).
Experiment [4] concerns Mantle cell lymphoma cell line Jeko. The experiment in a line: Induction of apoptosis, FITC-Annexin V-PI flow cytometry. The experiment is classed as cell-based. The procedure: Analysis by flow cytometry. Cell viability was also measured by flow cytometry at 24 and 48 hr using annexin-V-FITC and propidium iodide (PI) according to the manufacturer's instructions (BD Biosciences).
as §1

Experiment [5] deals with T2, affinity-purified hSWI/SNF associated PRMT5 (Homo sapiens, UniProt O14744).
T2 construct: made in house
The experiment in a line: Histone methyltransferase assay, [3H]SAM. Format: biochemical. Conditions: for inhibition of PRMT5 enzyme: 10 μM, FIG. 17B; for IC50: FIG. 16, 1-40 μM compound, HeLa S3 core histones, read-out: PRMT5 methylation activity IC50. The procedure: (§2) Histone methylation was performed in the presence of DMSO, and 1-40 μM inhibitor compounds. […] After 1.5 h incubation at 30° C., reaction mixtures were spotted on Whatman P-81 filter paper, washed five times with 10 mL of […] sodium carbonate buffer (pH 9.0) to remove unincorporated [3H]SAM, and methylated peptides were detected by scintillation counting.
Type II PRMT enzymes repress gene transcription and symmetrically dimethylate H3R8 and H4R3, while type I PRMT enzymes activate gene transcription and asymmetrically dimethylate H4R3. Purified PRMT5, PRMT1, PRMT4 and PRMT7 were obtained to perform the assay.
(§3) Histone methylation was performed in the presence of DMSO, and 1-40 μM HLCL-32, HLCL-10, HLCL-61 and HLCL-64. […] After a 1.5 h incubation at 30° C. reaction mixtures were spotted on Whatman P-81 filter paper, washed five times with 10 mL of […] sodium carbonate buffer (pH 9.0) to remove unincorporated [^3H]SAM, and methylated peptides were detected by scintillation counting.

Another experiment addresses T3, recombinant PRMT1 (Rattus norvegicus, UniProt Q63009).
T3 construct: purchased Millipore 14-474
The experiment in a line: Histone methyltransferase assay, [3H]SAM. Format: biochemical. The procedure:
as §2, §3

Where [6] appears, read: incubation time not given (24, 48, 72 h tested).

T1 sequence (O14744 2-637 limits assumed): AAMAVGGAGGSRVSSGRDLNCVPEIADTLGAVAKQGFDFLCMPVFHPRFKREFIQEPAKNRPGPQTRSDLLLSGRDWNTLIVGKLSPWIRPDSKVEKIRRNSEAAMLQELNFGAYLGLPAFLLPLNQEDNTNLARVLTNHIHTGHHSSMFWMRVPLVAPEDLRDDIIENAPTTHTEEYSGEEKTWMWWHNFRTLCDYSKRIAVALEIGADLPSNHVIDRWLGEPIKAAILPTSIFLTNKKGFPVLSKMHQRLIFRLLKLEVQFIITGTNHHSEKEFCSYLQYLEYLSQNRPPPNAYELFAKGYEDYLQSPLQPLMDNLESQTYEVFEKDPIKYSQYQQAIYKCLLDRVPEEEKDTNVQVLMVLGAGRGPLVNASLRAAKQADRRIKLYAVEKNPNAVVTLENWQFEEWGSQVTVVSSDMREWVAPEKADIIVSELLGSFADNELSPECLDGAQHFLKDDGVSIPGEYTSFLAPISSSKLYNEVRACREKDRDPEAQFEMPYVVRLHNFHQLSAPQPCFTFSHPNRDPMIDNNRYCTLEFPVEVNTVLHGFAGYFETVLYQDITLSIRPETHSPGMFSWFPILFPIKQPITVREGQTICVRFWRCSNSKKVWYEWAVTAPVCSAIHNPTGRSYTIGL
T1 sequence (Q9BQA1 2-342 partner limits assumed): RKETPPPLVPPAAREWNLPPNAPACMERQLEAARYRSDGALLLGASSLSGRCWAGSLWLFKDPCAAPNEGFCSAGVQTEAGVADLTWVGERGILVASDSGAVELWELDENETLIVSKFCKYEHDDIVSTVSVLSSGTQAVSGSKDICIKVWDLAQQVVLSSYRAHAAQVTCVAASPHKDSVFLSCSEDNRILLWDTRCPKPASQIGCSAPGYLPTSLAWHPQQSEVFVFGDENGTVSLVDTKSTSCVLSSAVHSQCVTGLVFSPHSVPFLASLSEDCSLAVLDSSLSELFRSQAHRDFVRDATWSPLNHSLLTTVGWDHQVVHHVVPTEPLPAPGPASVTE
T2 sequence (O14744 whole entry): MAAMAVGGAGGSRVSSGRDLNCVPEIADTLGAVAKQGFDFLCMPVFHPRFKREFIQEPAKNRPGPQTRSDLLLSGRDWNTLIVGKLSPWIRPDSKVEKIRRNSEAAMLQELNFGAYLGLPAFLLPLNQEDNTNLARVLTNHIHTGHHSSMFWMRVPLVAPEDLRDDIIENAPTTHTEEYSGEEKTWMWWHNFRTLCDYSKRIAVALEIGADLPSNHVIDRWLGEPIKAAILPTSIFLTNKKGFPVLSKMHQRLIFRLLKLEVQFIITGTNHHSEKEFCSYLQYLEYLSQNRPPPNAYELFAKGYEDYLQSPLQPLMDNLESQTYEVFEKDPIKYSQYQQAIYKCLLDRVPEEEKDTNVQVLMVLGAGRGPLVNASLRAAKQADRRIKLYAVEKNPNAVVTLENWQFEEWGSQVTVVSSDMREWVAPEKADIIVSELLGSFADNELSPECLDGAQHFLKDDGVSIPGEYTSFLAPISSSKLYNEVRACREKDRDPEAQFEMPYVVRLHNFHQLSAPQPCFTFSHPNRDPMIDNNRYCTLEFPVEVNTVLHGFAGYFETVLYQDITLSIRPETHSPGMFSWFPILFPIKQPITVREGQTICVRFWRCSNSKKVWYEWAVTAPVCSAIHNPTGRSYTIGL
T2 sequence (Q9BQA1 whole entry partner): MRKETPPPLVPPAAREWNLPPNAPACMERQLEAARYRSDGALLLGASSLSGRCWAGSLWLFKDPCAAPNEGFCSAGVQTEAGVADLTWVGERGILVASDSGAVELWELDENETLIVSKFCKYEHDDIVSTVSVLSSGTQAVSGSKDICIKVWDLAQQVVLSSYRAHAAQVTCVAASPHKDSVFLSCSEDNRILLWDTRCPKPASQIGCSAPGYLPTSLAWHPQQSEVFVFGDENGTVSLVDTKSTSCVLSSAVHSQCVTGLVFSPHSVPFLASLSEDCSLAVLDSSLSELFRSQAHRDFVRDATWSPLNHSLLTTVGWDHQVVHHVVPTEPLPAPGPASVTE
T3 sequence (Q63009 whole entry): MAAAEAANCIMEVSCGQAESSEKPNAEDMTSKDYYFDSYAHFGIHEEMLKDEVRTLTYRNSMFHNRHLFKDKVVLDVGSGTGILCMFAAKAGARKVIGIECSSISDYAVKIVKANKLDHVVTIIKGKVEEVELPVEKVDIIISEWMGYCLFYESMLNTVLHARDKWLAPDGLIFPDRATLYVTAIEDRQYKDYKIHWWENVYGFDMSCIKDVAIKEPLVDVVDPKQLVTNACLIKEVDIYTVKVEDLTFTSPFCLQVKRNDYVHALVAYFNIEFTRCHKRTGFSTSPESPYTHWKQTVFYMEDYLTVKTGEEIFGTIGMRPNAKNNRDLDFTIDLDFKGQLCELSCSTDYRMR

Consider `CS(=O)(=O)c1ccc(Cn2c3ccccc3c3ccccc32)cc1` [HLCL-1], for which the IC50 in experiment [1] (setting [6]) and in experiment [2] was above 50 µM in each case.

In the case of `COc1ccc(C(=O)Nc2sc3c(c2C(N)=O)CCCC3)cc1OC` [FLT3 inhibitor (CALBIOCHEM #343020)], the “PRMT5 expression and phosphorylation levels” value in experiment [3] is given as “did not change”.

With `CS(=O)(=O)c1ccc(NCCn2c3ccccc3c3ccccc32)cc1` [HLCL-23], the IC50 in experiment [1] (setting [6]) and in experiment [2] was above 50 µM each time.

On to `CO[C@@H]1[C@H](N(C)C(=O)c2ccccc2)C[C@H]2O[C@]1(C)n1c3ccccc3c3c4c(c5c6ccccc6n2c5c31)C(=O)NC4` [PKC412], for which, in experiment [3], the “PRMT5 expression and phosphorylation levels” value is “did not change”.

As for `CCn1c2ccccc2c2cc(/C=N/Nc3ccc(S(C)(=O)=O)cc3)ccc21` [HLCL-12], the 50% inhibitory concentration (IC50) in experiment [1] (setting [6]) and in experiment [2] was above 50 µM each time.

As for `CCn1c2ccccc2c2cc(NC(=S)Nc3ccc(S(C)(=O)=O)cc3)ccc21` [HLCL-6], the IC50 in experiment [1] (setting [6]) and in experiment [2] was above 50 µM throughout.

`CS(=O)(=O)c1ccc(/C=C/Cn2c3ccccc3c3ccccc32)cc1` [HLCL-63]: the 50% inhibitory concentration (IC50) in experiment [1] (setting [6]) and in experiment [2] was above 50 µM throughout.

Consider `CCn1c2ccccc2c2cc(CNc3ccc(S(N)(=O)=O)cc3)ccc21` [HLCL-32], for which the IC50 was 51 µM in experiment [1] (24 h incubation); 29 µM in experiment [1] (48 h incubation); 29 µM in experiment [1] (72 h incubation); above 50 µM in experiment [2]; around 5 µM in experiment [5]. The results for the EC50 in experiment [4] (24 h) and in experiment [4] (48 h) were 30 µM and 20 µM, respectively. The “inhibition of PRMT5 enzyme” value in experiment [5] is given as “the only enzyme that is affected is PRMT5”. Besides, the “inhibition of PRMT1 enzyme” value on recombinant PRMT1 (10 μM, FIG. 17B) was “this non-specific activity is lost”; at recombinant PRMT1 (20 μM and above, FIG. 17A), “non-specific inhibition”.

For `CS(=O)(=O)c1ccc(/C=C\Cn2c3ccccc3c3ccccc32)cc1` [HLCL-64], the IC50 was above 50 µM in experiment [1] (setting [6]), above 50 µM in experiment [2] and around 5 µM in experiment [5]. Further, in experiment [5], the “inhibition of PRMT5 enzyme” value is “the only enzyme that is affected is PRMT5”. In addition, the “inhibition of PRMT1 enzyme” value at recombinant PRMT1 (10 μM, FIG. 17B) was “this non-specific activity is lost”; on recombinant PRMT1 (20 μM and above, FIG. 17A), “non-specific inhibition”.

For `CS(=O)(=O)c1ccc(C(O)C(O)Cn2c3ccccc3c3ccccc32)cc1` (stereo not drawn) [HLCL-17&20], the IC50 in experiment [1] (setting [6]) and in experiment [2] was above 50 µM each time.

Turning to `CCn1c2ccccc2c2cc(CNCc3ccc(S(C)(=O)=O)cc3)ccc21` [HLCL-10], the IC50 in experiment [1] (24 h incubation) is 84 µM; in experiment [1] (48 h incubation), 47 µM; in experiment [1] (72 h incubation), 60 µM; in experiment [2] it was above 50 µM; in experiment [5] it was around 5 µM. Also, the EC50 worked out at 40 µM in experiment [4] (24 h) and 35 µM in experiment [4] (48 h). Moreover, the “inhibition of PRMT5 enzyme” value in experiment [5] is recorded as “the only enzyme that is affected is PRMT5”. In addition, the “inhibition of PRMT1 enzyme” value on recombinant PRMT1 (10 μM, FIG. 17B) was “this non-specific activity is lost”; on recombinant PRMT1 (20 μM and above, FIG. 17A) it was “non-specific inhibition”.

Take `CCn1c2ccccc2c2cc(CNc3ccc(S(C)(=O)=O)cc3)ccc21` [HLCL-9]: the IC50 in experiment [1] (setting [6]) and in experiment [2] was above 50 µM each time.
